Experimental data from ChEMBL document CHEMBL1201862, “PubChem BioAssay data set” (2004).
The source made the active and inactive calls.

What was measured:
[1] = target: Cytochrome P450 2C19 (Homo sapiens, UniProt P33261); assay: Cytochrome panel assay with activity outcomes. Panel member name: p450-cyp2c19 Compounds with AC50 equal or less than 10 uM are considered active; type: functional; details: read-out: AC50
[2] = target: T1, Protein RecA (Mycobacterium tuberculosis, UniProt P9WHJ3); assay: Fluorescence Cell-Free Homogeneous Dose Retest to Identify Inhibitors of RecA-Intein Splicing Activity. [Related pubchem assays (depositor defined):AID2097, AID2223, AID489010, AID492950]; type: functional
T1 sequence (P9WHJ3 whole entry): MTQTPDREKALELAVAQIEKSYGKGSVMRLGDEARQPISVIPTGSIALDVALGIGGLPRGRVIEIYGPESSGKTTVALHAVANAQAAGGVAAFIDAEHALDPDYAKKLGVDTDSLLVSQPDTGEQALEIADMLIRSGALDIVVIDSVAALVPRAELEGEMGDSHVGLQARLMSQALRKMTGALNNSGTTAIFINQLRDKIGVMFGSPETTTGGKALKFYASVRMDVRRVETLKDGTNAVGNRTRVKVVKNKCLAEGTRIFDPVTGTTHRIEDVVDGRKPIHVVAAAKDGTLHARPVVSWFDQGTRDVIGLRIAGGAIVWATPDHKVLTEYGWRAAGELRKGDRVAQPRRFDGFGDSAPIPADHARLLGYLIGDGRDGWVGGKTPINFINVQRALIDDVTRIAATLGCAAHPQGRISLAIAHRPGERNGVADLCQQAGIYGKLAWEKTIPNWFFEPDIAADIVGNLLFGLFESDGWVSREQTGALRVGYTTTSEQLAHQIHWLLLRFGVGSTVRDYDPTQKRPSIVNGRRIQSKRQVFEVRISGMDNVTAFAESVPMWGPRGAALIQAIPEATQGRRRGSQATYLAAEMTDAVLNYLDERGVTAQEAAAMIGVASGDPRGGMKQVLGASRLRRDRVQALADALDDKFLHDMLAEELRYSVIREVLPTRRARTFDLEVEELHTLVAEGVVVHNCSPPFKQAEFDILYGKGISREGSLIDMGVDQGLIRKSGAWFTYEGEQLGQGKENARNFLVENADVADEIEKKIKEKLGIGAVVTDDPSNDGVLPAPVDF

[3] = target: Cytochrome P450 3A4 (Homo sapiens, UniProt P08684);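 also: CYP3A4 tested as one member of a cytochrome P450 panel screen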
[4] = target: T2, Cytochrome P450 1A2 (Homo sapiens, UniProt P05177)
T2 sequence (P05177 whole entry): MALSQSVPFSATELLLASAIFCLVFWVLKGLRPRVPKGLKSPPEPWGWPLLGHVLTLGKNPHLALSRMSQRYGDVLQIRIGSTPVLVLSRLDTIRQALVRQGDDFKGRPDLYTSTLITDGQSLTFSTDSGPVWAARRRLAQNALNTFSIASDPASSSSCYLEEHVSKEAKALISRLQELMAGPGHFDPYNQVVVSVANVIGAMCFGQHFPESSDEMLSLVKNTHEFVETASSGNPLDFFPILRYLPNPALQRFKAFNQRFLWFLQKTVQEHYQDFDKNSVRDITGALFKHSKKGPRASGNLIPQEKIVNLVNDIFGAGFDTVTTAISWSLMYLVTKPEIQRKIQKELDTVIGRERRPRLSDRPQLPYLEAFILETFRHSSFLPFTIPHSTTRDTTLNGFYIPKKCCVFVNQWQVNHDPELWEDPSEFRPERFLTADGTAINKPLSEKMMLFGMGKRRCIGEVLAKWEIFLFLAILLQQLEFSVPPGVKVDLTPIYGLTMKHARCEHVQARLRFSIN

[5] = Luminescence Cell-Based Dose Retest to Confirm Inhibitors of Cancer Stem Cells. [Related pubchem assays (depositor defined):AID2717, AID2721]; type: functional; details: Homo sapiens
[6] = target: T3, Replicative DNA helicase DnaB (Mycobacterium tuberculosis, UniProt P9WMR3); assay: DnaB intein splicing inhibitors, dose response, biochemical, cell-free fluorescence (AID 449749); type: functional
T3 sequence (P9WMR3 whole entry): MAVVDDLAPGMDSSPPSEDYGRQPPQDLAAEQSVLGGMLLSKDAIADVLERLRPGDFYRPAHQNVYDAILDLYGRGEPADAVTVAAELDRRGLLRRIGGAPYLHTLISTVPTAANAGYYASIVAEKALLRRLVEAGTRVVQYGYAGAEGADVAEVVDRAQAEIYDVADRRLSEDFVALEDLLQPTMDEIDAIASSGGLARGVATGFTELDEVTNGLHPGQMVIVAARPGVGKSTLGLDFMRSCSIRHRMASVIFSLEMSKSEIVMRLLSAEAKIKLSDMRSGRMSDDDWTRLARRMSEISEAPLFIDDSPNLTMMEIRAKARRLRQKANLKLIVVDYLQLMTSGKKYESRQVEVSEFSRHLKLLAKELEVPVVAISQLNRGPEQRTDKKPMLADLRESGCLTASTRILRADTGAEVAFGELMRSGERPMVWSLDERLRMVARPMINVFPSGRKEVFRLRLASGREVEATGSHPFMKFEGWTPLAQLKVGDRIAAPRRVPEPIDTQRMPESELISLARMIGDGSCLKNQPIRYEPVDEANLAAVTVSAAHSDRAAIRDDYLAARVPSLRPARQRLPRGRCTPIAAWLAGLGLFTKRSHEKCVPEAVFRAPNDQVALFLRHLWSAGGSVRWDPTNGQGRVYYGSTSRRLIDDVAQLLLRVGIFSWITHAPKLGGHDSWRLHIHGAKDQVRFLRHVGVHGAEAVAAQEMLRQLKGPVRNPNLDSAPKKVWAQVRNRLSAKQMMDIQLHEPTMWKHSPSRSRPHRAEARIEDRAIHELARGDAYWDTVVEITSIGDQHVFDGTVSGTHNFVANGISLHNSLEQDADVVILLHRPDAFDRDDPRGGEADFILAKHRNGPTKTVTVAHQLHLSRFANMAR

[7] = test system: Streptococcus sp. 'group A'; assay: growth inhibition of control SK(-) GAS strain, dose response, counter-screen for streptokinase expression inhibitor project, luminescence, kanamycin, BacTiterGlo, confirmation (AID 1900); type: functional, organism-based
[8] = test system: Streptococcus; assay: Group A Streptococcus viability loss, dose response, counter-screen for streptokinase expression inhibitor project, luminescence, BacTiterGlo (AID 1915); type: functional, organism-based;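 also: potency for reduction of bacterial viability or growth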

Sequence of Cytochrome P450 3A4 (P08684 whole entry): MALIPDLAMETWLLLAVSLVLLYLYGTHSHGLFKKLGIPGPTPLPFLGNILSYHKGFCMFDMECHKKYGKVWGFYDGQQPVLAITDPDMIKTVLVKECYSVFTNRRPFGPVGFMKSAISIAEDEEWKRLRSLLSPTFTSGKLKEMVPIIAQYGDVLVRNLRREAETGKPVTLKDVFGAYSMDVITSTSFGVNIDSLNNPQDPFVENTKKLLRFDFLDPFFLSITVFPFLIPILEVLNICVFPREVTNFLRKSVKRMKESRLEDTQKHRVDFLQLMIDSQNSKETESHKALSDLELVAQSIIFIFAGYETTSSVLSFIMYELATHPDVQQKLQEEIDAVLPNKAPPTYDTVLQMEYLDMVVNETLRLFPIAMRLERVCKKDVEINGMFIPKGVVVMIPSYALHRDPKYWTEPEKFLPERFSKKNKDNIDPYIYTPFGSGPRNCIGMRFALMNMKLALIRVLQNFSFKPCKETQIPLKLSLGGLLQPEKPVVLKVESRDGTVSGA
Sequence of Cytochrome P450 2C19 (P33261 whole entry): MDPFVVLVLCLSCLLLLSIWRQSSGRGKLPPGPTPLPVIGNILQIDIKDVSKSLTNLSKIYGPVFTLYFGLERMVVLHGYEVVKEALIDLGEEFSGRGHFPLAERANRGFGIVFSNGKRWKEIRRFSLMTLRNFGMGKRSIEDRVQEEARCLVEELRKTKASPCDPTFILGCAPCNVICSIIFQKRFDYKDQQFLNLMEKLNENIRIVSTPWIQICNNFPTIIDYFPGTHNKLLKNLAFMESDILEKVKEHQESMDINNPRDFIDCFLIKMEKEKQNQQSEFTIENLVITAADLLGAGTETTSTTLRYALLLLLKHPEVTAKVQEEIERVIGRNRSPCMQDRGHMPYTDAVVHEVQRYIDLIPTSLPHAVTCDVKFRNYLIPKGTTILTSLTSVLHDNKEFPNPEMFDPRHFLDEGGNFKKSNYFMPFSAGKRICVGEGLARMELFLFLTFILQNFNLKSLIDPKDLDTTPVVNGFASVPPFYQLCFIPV

Q: For `Cn1c(-c2ccc3c(c2)OCO3)cc(=O)c2ccccc21` [GRAVEOLINE], which AC50 [1] is on record?
A: 2 µM (inconclusive)

Q: Which EC50 [2] does the source give for `N#Cc1ncc(-c2ccc3c(c2)OCCOCCOCCOCCO3)nc1C#N` here?
A: 8.97 µM (active)

Q: Which AC50 [3] does the source give for `O=c1cc(N2CCC(Cc3ccccc3)CC2)[nH]c(=O)n1C1CCCCC1` here?
A: 3.55 µM (inconclusive)

Q: For `C[C@](N)(C(=O)O)c1ccc(-c2nnn[nH]2)cc1`, which AC50 [1] is on record?
A: 7.94 µM (inconclusive)

Q: And the AC50 [4]?
A: 39.8 µM (inconclusive)

Q: Which AC50 [3] does the source give for `C#CCCCO/N=C1/C[C@@H](O)[C@@H](O)[C@@H]2[C@@H]3C(=O)N(CCC(=O)OCC)C(=O)[C@H]3CC[C@H]12` here?
A: 5.01 µM (inconclusive)

Q: For `COCCNc1nc(-c2cccc(NS(C)(=O)=O)c2)nc2ccccc12`, which AC50 [1] is on record?
A: 39.8 µM (inconclusive)

Q: With `COc1ccc(CC(=O)O/N=C(\N)Cc2ccc(OC)cc2)cc1` as the molecule, how does the AC50 [1] read?
A: 14.1 µM (inconclusive)

Q: Which AC50 [3] does the source give for `O=C1[C@H]2O[C@@H]2[C@@H](O)[C@H]2[C@H]1CCn1c(=O)n(Cc3cc4c(cc3Cl)OCO4)c(=O)n12` here?
A: 3.16 µM (inconclusive)

Q: For `COc1ccc(-n2c(=O)c(C)nc3cnc(N4CCOCC4)nc32)cc1`, which AC50 [3] is on record?
A: 31.6 µM (inconclusive)

Q: Which AC50 [5] does the source give for `CC1(C)CCC[C@]2(C)[C@H]3Cc4cc(O)ccc4O[C@]3(C)CC[C@@H]12` here?
A: 4.75 µM (active)

Q: For `O=C(NC(=S)Nc1cccc(Cl)c1N1CCCCC1)c1cccs1`, which AC50 [5] is on record?
A: 2.08 µM (active)

Q: Which AC50 [6] does the source give for `CCOc1ccc(-c2[nH]nc3c2C(c2ccc(O)cc2)C(C#N)=C(N)O3)cc1` (stereo not given) here?
A: 4.62 µM (active)

Q: What about the EC50 [2] of the same molecule?
A: 1.75 µM (active)

Q: Which AC50 [1] does the source give for `OC[C@@H]1O[C@@H](n2cnc3c(NC4CCCCC4)ncnc32)[C@@H](O)[C@H]1O` here?
A: 0.0251 µM (inconclusive)

Q: With `CC(=O)C(Sc1ncnc2c1nnn2-c1ccc(F)cc1)C(=O)N(C)C` (stereo not given) as the molecule, how does the AC50 [6] read?
A: 21.8 µM (active)

Q: What about the EC50 [2] of the same molecule?
A: 15.7 µM (active)

Q: What does the source list for `CC[C@H]1OC(=O)[C@H](C)[C@@H](O[C@H]2C[C@@](C)(OC)[C@@H](O)[C@H](C)O2)[C@H](C)[C@@H](O[C@@H]2O[C@H](C)C[C@H](N(C)C)[C@H]2O)[C@](C)(O)C[C@@H](C)C(=NOCOCCOC)[C@H](C)[C@@H](O)[C@]1(C)O`?
A: EC50 [7]: < 0.06 µM (active); EC50 [8]: < 0.06 µM (active)

Q: Which AC50 [5] does the source give for `CC(=O)Oc1ccc(C#C/C=C2\c3ccccc3C(=O)N2c2ccccc2)cc1` here?
A: 2.25 µM (active)

Q: For `Cc1noc(C)c1C(=O)N1CCC[C@@]2(CCN(C(=O)Nc3ccccc3)C2)C1`, which AC50 [4] is on record?
A: 39.8 µM (inconclusive)

Q: For `CCCc1nc2ccccc2c(=O)n1/N=C/c1c(C)nn(-c2ccc(C)cc2)c1O`, which EC50 [7] is on record?
A: 2.87 µM (active)

Q: What about the EC50 [8] of the same molecule?
A: 9.16 µM (active)

Q: Which AC50 [4] does the source give for `C[C@@H](C(=O)Nc1ccc2ccccc2c1)[C@@H]1C[C@@]1(C)[C@@H](NC(=O)c1cnccn1)c1ccccc1` here?
A: 12.6 µM (inconclusive)

Q: For `Cc1ccc(OCC(=O)NNC(=O)c2cccnc2)cc1`, which AC50 [1] is on record?
A: 3.16 µM (inconclusive)

Q: What about the AC50 [3] of the same molecule?
A: 25.1 µM (inconclusive)

Q: For `CC(Oc1ccccc1)C(=O)Nc1nc2c(s1)C(=O)CC(C)(C)C2` (stereo not given), which AC50 [4] is on record?
A: 15.8 µM (inconclusive)

Q: For `CC1=NNC(=O)C1Oc1ccccc1` (stereo not given), which AC50 [6] is on record?
A: 0.737 µM (active)

Q: What about the EC50 [2] of the same molecule?
A: 0.57 µM (active)

Q: Which AC50 [3] does the source give for `CC(=O)NCCNc1ncnc2ccc(-c3c(C)noc3C)cc12` here?
A: 25.1 µM (inconclusive)
